Assay results as given in patent US20060193785A1, “Pharmaceutical aerosol formulations for pressurized metered dose inhalers comprising a sequestering agent” (priority 2005, published 2006).

Legend:
[1] = Stability study of budesonide HFA solution formulation in anodized aluminium cans at 40° C. and 75% relative humidity; format: physicochemical
Protocol: A formulation for delivering a nominal dose of 200 μg of budesonide per actuation was prepared and filled in anodized aluminium canisters fitted with a metering valve having a 50 μl metering chamber.
A stability study was carried out by storing the formulation in upright (Up) and inverted (Inv) cans at 40° C. and 75% relative humidity. After three months of storage under these conditions the percent recovery of the active ingredient was very good. At the same time, the addition of small quantities of phosphoric acid appears to reduce the main oxidation degradation product, which is the 21-aldehyde content of the budesonide formulation.

[2] = TA 2005 stability in presence of sulphuric acid, upright Teflon-coated cans at 40° C.; format: physicochemical; settings: 0.075 M sulphuric acid in a concentration of 0.0018 to 0.0054% w/w
Protocol: A formulation of 8-hydroxy-5-[(1R)-1-hydroxy-2-[[(1R)-2-(4-methoxyphenyl)-1-methyl ethyl]amino]ethyl]-2(1H)-quinolinone hydrochloride (TA 2005) for delivering a nominal dose of 1 μg of active ingredient per actuation, was prepared with the following formulation: […]
The formulation (120 actuations/canister, overage of 30 actuations) was filled in aluminium canisters having the internal surface coated with Teflon and fitted with a metering valve having a 63 μl metering chamber.
A stability study was carried out by storing the formulation in upright cans at 40° C. The percent recovery of the active ingredient after one month of storage under these conditions is reported in the following: […]

Row | effect of small quantities of phosphoric acid on 21-aldehyde content (main oxidation degradation product) [1] | chemical stability [2] | SMILES
1 | reduce |  | CCCC1O[C@@H]2C[C@H]3[C@@H]4CCC5=CC(=O)C=C[C@]5(C)[C@H]4[C@@H](O)C[C@]3(C)[C@]2(C(=O)CO)O1 (some centres unmarked) [Budesonide, budesonide]
2 |  | improved | COc1ccc(C[C@@H](C)NC[C@H](O)c2ccc(O)c3[nH]c(=O)ccc23)cc1.Cl [TA 2005, 8-hydroxy-5-[(1R)-1-hydroxy-2-[[(1R)-2-(4-methoxyphenyl)-1-methylethyl]amino]ethyl]-2(1H)-quinolinone hydrochloride]
